Reference: ChEMBL document CHEMBL3233012, “Synthesis, antimicrobial and cytotoxic activities of pyrimidinyl benzoxazole, benzothiazole and benzimidazole” (Eur J Med Chem, 2014)
In brackets after ≈: the same amount, converted by molar mass. Activity calls are given as the source filed them. The rule behind the calls is not given here.

Columns and labels:
Escherichia coli [1] = experiment: Antimicrobial activity against Escherichia coli at 25 ug/well after 24 hrs by agar well diffusion method; type: functional; conditions: read-out: DIZ
A549 [2] = experiment: Cytotoxicity against human A549 cells assessed as reduction in cell viability up to 200 uM after 20 hrs by MTT assay; type: functional, cell-based
Staphylococcus aureus [3] = experiment: Antimicrobial activity against Staphylococcus aureus at 50 ug/well after 24 hrs by agar well diffusion method; type: functional; conditions: read-out: DIZ
Pseudomonas aeruginosa [4] = experiment: Antimicrobial activity against Pseudomonas aeruginosa at 50 ug/well after 24 hrs by agar well diffusion method; type: functional; conditions: read-out: DIZ
Pseudomonas aeruginosa [5] = experiment: Antimicrobial activity against Pseudomonas aeruginosa at 25 ug/well after 24 hrs by agar well diffusion method; type: functional; conditions: read-out: DIZ
Staphylococcus aureus [6] = experiment: Antimicrobial activity against Staphylococcus aureus at 100 ug/well after 24 hrs by agar well diffusion method; type: functional; conditions: read-out: DIZ
Penicillium chrysogenum [7] = experiment: Antimicrobial activity against Penicillium chrysogenum at 25 ug/well after 48 hrs by agar well diffusion method; type: functional; conditions: for zone of inhibition at 25 µg/disc: read-out: DIZ
Escherichia coli [8] = experiment: Antimicrobial activity against Escherichia coli at 100 ug/well after 24 hrs by agar well diffusion method; type: functional; conditions: read-out: DIZ
Aspergillus niger [9] = experiment: Antimicrobial activity against Aspergillus niger at 100 ug/well after 48 hrs by agar well diffusion method; type: functional; conditions: read-out: DIZ
Aspergillus niger [10] = experiment: Antimicrobial activity against Aspergillus niger at 50 ug/well after 48 hrs by agar well diffusion method; type: functional; conditions: read-out: DIZ
Pseudomonas aeruginosa [11] = experiment: Antimicrobial activity against Pseudomonas aeruginosa at 100 ug/well after 24 hrs by agar well diffusion method; type: functional; conditions: read-out: DIZ
Penicillium chrysogenum [12] = experiment: Antimicrobial activity against Penicillium chrysogenum at 50 ug/well after 48 hrs by agar well diffusion method; type: functional; conditions: read-out: DIZ
Escherichia coli [13] = experiment: Antimicrobial activity against Escherichia coli at 50 ug/well after 24 hrs by agar well diffusion method; type: functional; conditions: read-out: DIZ
Penicillium chrysogenum [14] = experiment: Antimicrobial activity against Penicillium chrysogenum at 100 ug/well after 48 hrs by agar well diffusion method; type: functional; conditions: read-out: DIZ
Staphylococcus aureus [15] = experiment: Antimicrobial activity against Staphylococcus aureus at 25 ug/well after 24 hrs by agar well diffusion method; type: functional; conditions: read-out: DIZ
Aspergillus niger [16] = experiment: Antimicrobial activity against Aspergillus niger at 25 ug/well after 48 hrs by agar well diffusion method; type: functional; conditions: for zone of inhibition at 25 µg/disc: read-out: DIZ
Penicillium chrysogenum [17] = experiment: Antimicrobial activity against Penicillium chrysogenum after 24 hrs by broth dilution method; type: functional
Staphylococcus aureus [18] = experiment: Antimicrobial activity against Staphylococcus aureus ATCC 25923 after 24 hrs by broth dilution method; type: functional
Pseudomonas aeruginosa [19] = experiment: Antimicrobial activity against Pseudomonas aeruginosa ATCC 27853 after 24 hrs by broth dilution method; type: functional
Escherichia coli [20] = experiment: Antimicrobial activity against Escherichia coli ATCC 25922 after 24 hrs by broth dilution method; type: functional
Aspergillus niger [21] = experiment: Antimicrobial activity against Aspergillus niger after 24 hrs by broth dilution method; type: functional
A549 [22] = experiment: Cytotoxicity against human A549 cells assessed as reduction in cell viability after 20 hrs by MTT assay; type: functional, cell-based
Penicillium chrysogenum [23] = experiment: Ratio of MBC to MIC for Penicillium chrysogenum; type: functional
Escherichia coli [24] = experiment: Antimicrobial activity against Escherichia coli ATCC 25922 after 24 hrs; type: functional; conditions: ATCC 25922, 24 h
Pseudomonas aeruginosa [25] = experiment: Antimicrobial activity against Pseudomonas aeruginosa ATCC 27853 after 24 hrs; type: functional; conditions: ATCC 27853, 24 h
Staphylococcus aureus [26] = experiment: Antimicrobial activity against Staphylococcus aureus ATCC 25923 after 24 hrs; type: functional; conditions: ATCC 25923, 24 h
Aspergillus niger [27] = experiment: Antimicrobial activity against Aspergillus niger after 24 hrs; type: functional
Staphylococcus aureus [28] = experiment: Ratio of MBC to MIC for Staphylococcus aureus ATCC 25923; type: functional
Penicillium chrysogenum [29] = experiment: Antimicrobial activity against Penicillium chrysogenum after 24 hrs; type: functional

`Cc1cc(Cl)nc(SCc2nc3ccccc3[nH]2)n1` was tested, and the zone of inhibition at 25 µg/disc (Escherichia coli [1]) was 8 mm, the Activity (A549 [2]) was “inactive” and the zone of inhibition at 50 µg/disc (Staphylococcus aureus [3]) was 10 mm. It also gave a zone of inhibition at 50 µg/disc (Pseudomonas aeruginosa [4]) of 10 mm, a zone of inhibition at 25 µg/disc (Pseudomonas aeruginosa [5]) of 8 mm and a zone of inhibition at 100 µg/disc (Staphylococcus aureus [6]) of 12 mm. It also gave a zone of inhibition at 25 µg/disc (Penicillium chrysogenum [7]) of 8 mm, a zone of inhibition at 100 µg/disc (Escherichia coli [8]) of 16 mm and a zone of inhibition at 100 µg/disc (Aspergillus niger [9]) of 11 mm. The zone of inhibition at 50 µg/disc (Aspergillus niger [10]) was 9 mm, the zone of inhibition at 100 µg/disc (Pseudomonas aeruginosa [11]) was 12 mm and the zone of inhibition at 50 µg/disc (Penicillium chrysogenum [12]) was 10 mm. It also gave a zone of inhibition at 50 µg/disc (Escherichia coli [13]) of 13 mm, a zone of inhibition at 100 µg/disc (Penicillium chrysogenum [14]) of 12 mm and a zone of inhibition at 25 µg/disc (Staphylococcus aureus [15]) of 8 mm. For the same molecule, the zone of inhibition at 25 µg/disc (Aspergillus niger [16]) was 7 mm.
For `Cc1cc(Sc2nc3ccccc3[nH]2)nc(SCc2nc3ccccc3[nH]2)n1`, the zone of inhibition at 25 µg/disc (Escherichia coli [1]) was 17 mm, the Activity (A549 [2]) was “inactive” and the zone of inhibition at 50 µg/disc (Staphylococcus aureus [3]) was 16 mm. For the same molecule, the zone of inhibition at 50 µg/disc (Pseudomonas aeruginosa [4]) was 17 mm, the zone of inhibition at 25 µg/disc (Pseudomonas aeruginosa [5]) was 14 mm and the zone of inhibition at 100 µg/disc (Staphylococcus aureus [6]) was 19 mm. For the same molecule, the zone of inhibition at 25 µg/disc (Penicillium chrysogenum [7]) was 15 mm, the zone of inhibition at 100 µg/disc (Escherichia coli [8]) was 22 mm and the zone of inhibition at 100 µg/disc (Aspergillus niger [9]) was 17 mm. It also gave a zone of inhibition at 50 µg/disc (Aspergillus niger [10]) of 15 mm, a zone of inhibition at 100 µg/disc (Pseudomonas aeruginosa [11]) of 18 mm and a zone of inhibition at 50 µg/disc (Penicillium chrysogenum [12]) of 17 mm. It also gave a zone of inhibition at 50 µg/disc (Escherichia coli [13]) of 20 mm, a zone of inhibition at 100 µg/disc (Penicillium chrysogenum [14]) of 19 mm and a zone of inhibition at 25 µg/disc (Staphylococcus aureus [15]) of 13 mm. It also gave a zone of inhibition at 25 µg/disc (Aspergillus niger [16]) of 14 mm.
With `CC(=O)N1CCN(c2ccc(OCC3COC(Cn4ccnc4)(c4ccc(Cl)cc4Cl)O3)cc2)CC1` (centres undefined) [KETOCONAZOLE] the MIC (Penicillium chrysogenum [17]) was 12.5 µg/mL (≈ 23.5 µM), the MIC (Staphylococcus aureus [18]) was “inactive” and the MIC (Pseudomonas aeruginosa [19]) was “inactive”. The zone of inhibition at 25 µg/disc (Penicillium chrysogenum [7]) was 35 mm, the zone of inhibition at 100 µg/disc (Aspergillus niger [9]) was 36 mm and the zone of inhibition at 50 µg/disc (Aspergillus niger [10]) was 33 mm. For the same molecule, the zone of inhibition at 50 µg/disc (Penicillium chrysogenum [12]) was 36 mm, the zone of inhibition at 100 µg/disc (Penicillium chrysogenum [14]) was 38 mm and the zone of inhibition at 25 µg/disc (Aspergillus niger [16]) was 31 mm. The MIC (Escherichia coli [20]) was “inactive” and the MIC (Aspergillus niger [21]) was 6.25 µg/mL (≈ 11.8 µM).
With `Cc1cc(Cl)nc(SCc2nc3ccccc3o2)n1` the zone of inhibition at 25 µg/disc (Escherichia coli [1]) was 6 mm, the Activity (A549 [2]) was “inactive” and the zone of inhibition at 50 µg/disc (Staphylococcus aureus [3]) was 7 mm. The zone of inhibition at 50 µg/disc (Pseudomonas aeruginosa [4]) was 7 mm, the zone of inhibition at 25 µg/disc (Pseudomonas aeruginosa [5]) was 5 mm and the zone of inhibition at 100 µg/disc (Staphylococcus aureus [6]) was 8 mm. For the same molecule, the “diameter of the inhibition zone (DIZ)” value (Penicillium chrysogenum [7]) was “inactive”, the zone of inhibition at 100 µg/disc (Escherichia coli [8]) was 11 mm and the zone of inhibition at 100 µg/disc (Aspergillus niger [9]) was 9 mm. The zone of inhibition at 50 µg/disc (Aspergillus niger [10]) was 7 mm, the zone of inhibition at 100 µg/disc (Pseudomonas aeruginosa [11]) was 8 mm and the zone of inhibition at 50 µg/disc (Penicillium chrysogenum [12]) was 8 mm. It also gave a zone of inhibition at 50 µg/disc (Escherichia coli [13]) of 8 mm, a zone of inhibition at 100 µg/disc (Penicillium chrysogenum [14]) of 10 mm and a zone of inhibition at 25 µg/disc (Staphylococcus aureus [15]) of 5 mm. The “diameter of the inhibition zone (DIZ)” value (Aspergillus niger [16]) was “inactive”.
With `Cc1cc(Sc2nc3ccccc3s2)nc(SCc2nc3ccccc3s2)n1` the zone of inhibition at 25 µg/disc (Escherichia coli [1]) was 14 mm, the zone of inhibition at 50 µg/disc (Staphylococcus aureus [3]) was 12 mm and the zone of inhibition at 50 µg/disc (Pseudomonas aeruginosa [4]) was 15 mm. For the same molecule, the inhibition (A549 [22]) was “Dose-dependent effect”, the IC50 (A549 [22]; A549, 20 h) was 70 µM and the zone of inhibition at 25 µg/disc (Pseudomonas aeruginosa [5]) was 13 mm. The zone of inhibition at 100 µg/disc (Staphylococcus aureus [6]) was 16 mm, the zone of inhibition at 25 µg/disc (Penicillium chrysogenum [7]) was 12 mm and the zone of inhibition at 100 µg/disc (Escherichia coli [8]) was 20 mm. It also gave a zone of inhibition at 100 µg/disc (Aspergillus niger [9]) of 15 mm, a zone of inhibition at 50 µg/disc (Aspergillus niger [10]) of 12 mm and a zone of inhibition at 100 µg/disc (Pseudomonas aeruginosa [11]) of 16 mm. It also gave a zone of inhibition at 50 µg/disc (Penicillium chrysogenum [12]) of 13 mm, a zone of inhibition at 50 µg/disc (Escherichia coli [13]) of 17 mm and a zone of inhibition at 100 µg/disc (Penicillium chrysogenum [14]) of 15 mm. For the same molecule, the zone of inhibition at 25 µg/disc (Staphylococcus aureus [15]) was 10 mm and the zone of inhibition at 25 µg/disc (Aspergillus niger [16]) was 10 mm.
`Cc1cc(SCc2nc3ccccc3[nH]2)nc(SCc2nc3ccccc3[nH]2)n1` was tested, and the Ratio (Penicillium chrysogenum [23]) was 2, the zone of inhibition at 25 µg/disc (Escherichia coli [1]) was 28 mm and the Activity (A549 [2]) was “inactive”. It also gave a zone of inhibition at 50 µg/disc (Staphylococcus aureus [3]) of 26 mm, an MBC (Escherichia coli [24]) of 200 µg/mL (≈ 478 µM) and an MIC (Penicillium chrysogenum [17]) of 12.5 µg/mL (≈ 29.9 µM). For the same molecule, the zone of inhibition at 50 µg/disc (Pseudomonas aeruginosa [4]) was 25 mm, the MIC (Staphylococcus aureus [18]; ATCC 25923, 24 h) was 12.5 µg/mL (≈ 29.9 µM) and the zone of inhibition at 25 µg/disc (Pseudomonas aeruginosa [5]) was 22 mm. The MIC (Pseudomonas aeruginosa [19]; ATCC 27853, 24 h) was 12.5 µg/mL (≈ 29.9 µM), the zone of inhibition at 100 µg/disc (Staphylococcus aureus [6]) was 29 mm and the MBC (Pseudomonas aeruginosa [25]) was 100 µg/mL (≈ 239 µM). For the same molecule, the zone of inhibition at 25 µg/disc (Penicillium chrysogenum [7]) was 33 mm, the zone of inhibition at 100 µg/disc (Escherichia coli [8]) was 35 mm and the zone of inhibition at 100 µg/disc (Aspergillus niger [9]) was 32 mm. The zone of inhibition at 50 µg/disc (Aspergillus niger [10]) was 30 mm, the zone of inhibition at 100 µg/disc (Pseudomonas aeruginosa [11]) was 27 mm and the zone of inhibition at 50 µg/disc (Penicillium chrysogenum [12]) was 35 mm. For the same molecule, the zone of inhibition at 50 µg/disc (Escherichia coli [13]) was 32 mm, the MBC (Staphylococcus aureus [26]) was 25 µg/mL (≈ 59.7 µM) and the zone of inhibition at 100 µg/disc (Penicillium chrysogenum [14]) was 38 mm. It also gave an MFC (Aspergillus niger [27]) of 100 µg/mL (≈ 239 µM), a zone of inhibition at 25 µg/disc (Staphylococcus aureus [15]) of 23 mm and a zone of inhibition at 25 µg/disc (Aspergillus niger [16]) of 27 mm. It also gave an MIC (Escherichia coli [20]; ATCC 25922, 24 h) of 50 µg/mL (≈ 119 µM), a Ratio (Staphylococcus aureus [28]) of 2 and an MFC (Penicillium chrysogenum [29]) of 25 µg/mL (≈ 59.7 µM). It also gave an MIC (Aspergillus niger [21]) of 12.5 µg/mL (≈ 29.9 µM).
